This passage reports IC50 results from publication PMC10513951, “Identification of a dihydroorotate dehydrogenase inhibitor that inhibits cancer cell growth by proteomic profiling” (Oncology Research, 2023).

In general, IC50 refers to the concentration at which inhibition is half-maximal.

In the test the target is T1, dihydroorotate dehydrogenase (DHODH) (Homo sapiens, UniProt Q02127).
T1 construct: N-terminal His-tagged DHODH/ΔTM; Met29–Arg395
Briefly: DCIP reduction enzyme assay with recombinant human DHODH. Format: biochemical.

SMILES strings stand for the structures.

T1 sequence (Q02127 29-395): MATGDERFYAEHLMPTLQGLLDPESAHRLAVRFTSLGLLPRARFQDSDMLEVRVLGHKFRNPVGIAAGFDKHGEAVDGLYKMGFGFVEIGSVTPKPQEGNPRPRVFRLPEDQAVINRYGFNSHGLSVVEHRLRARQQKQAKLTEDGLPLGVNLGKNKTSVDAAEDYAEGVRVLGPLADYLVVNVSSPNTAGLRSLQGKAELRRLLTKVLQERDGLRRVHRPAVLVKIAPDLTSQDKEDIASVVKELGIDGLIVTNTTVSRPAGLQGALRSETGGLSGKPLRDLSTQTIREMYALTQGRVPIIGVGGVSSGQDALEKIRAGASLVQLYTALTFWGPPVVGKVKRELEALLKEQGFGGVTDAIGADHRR

Consider `Cc1cc(=O)oc2c1ccc1oc(C(=O)c3ccccc3)c(-c3ccccc3)c12` [NPD723, 8-Benzoyl-4-methyl-9-phenyl-2H-furo[2,3-h]-1-benzopyran-2-one], for which the IC50 came out at 1520 nM.

On to `Cc1cc(=O)oc2c1ccc1oc(C(O)c3ccccc3)c(-c3ccccc3)c12` (centres unmarked) [H-006, 8-(Hydroxyphenylmethyl)-4-methyl-9-phenyl-2H-furo[2,3-h]-1-benzopyran-2-one], for which the IC50 came to 3.8 nM.
